Laboratory results: US20240327801A1, “EFFICIENT CELL CULTURE SYSTEM FOR HEPATITIS C VIRUS GENOTYPE 4a” (Hvidovre Hospital, priority 2021, published 2024)
Read-outs that look alike come from different tables or passages of the source.

Columns and labels:
[1] = tested on: ED43-virus; type: cell-based, hepatitis C virus genotype 4a
[2] = tested on: SOFesc virus (ED43 sofosbuvir escape virus); assay: microbe, parasite or virus in culture; type: cell-based; details: Hepatitis C virus, Huh7.5 cells, 48 hours treatment, read-out: EC50 (nM [95% CI])
[3] = tested on: original ED43 virus (HCV genotype 4a full-length culture virus); assay: concentration-response (EC50) assay, original virus; details: Hepatitis C virus, Huh7.5, 48 h, read-out: EC50 (nM [95% CI])
Experimental: Huh7.5 cells were seeded on 96-well plates overnight, then infected with the indicated viruses for 24 hours. The cells were subsequently treated with specific inhibitors for an additional 48 hours before analysis as described (Pham et al. 2018; Gottwein et al. 2011). Values are means of triplicates±SEM. The original D43 virus was used in these two experiments as a control. TN (1a) virus was included for comparison.
Huhu7.5 cells were seeded on 96-well plates overnight, then infected with the indicated viruses for 24 hours. The cells were subsequently treated with specific inhibitors for an additional 48 hours before analysis as described (Pham et al. 2018; Gottwein et al. 2011). Values are means of triplicates±SEM. The original ED43 virus was used as a control. TN (1a) virus was included for comparison.
For concentration-response assays using described methods (Pham et al. 2018; Ramirez et al. 2016; Ramirez et al. 2014), stocks of non-treated and of single-treatment escape viruses were prepared. […] The half-maximal effective concentration (EC50) value was calculated using GraphPad Prism 6.

## COC[C@H]1C[C@@H](c2nc(-c3ccc4c(c3)COc3cc5c(ccc6nc([C@@H]7CC[C@H](C)N7C(=O)[C@@H](NC(=O)OC)C(C)C)[nH]c65)cc3-4)c[nH]2)N(C(=O)[C@H](NC(=O)OC)c2ccccc2)C1 [velpatasvir]
[1]; 100×EC50
  viral escape: did not observe viral escape

## CC(C)OC(=O)[C@H](C)N[P@](=O)(OC[C@H]1O[C@@H](n2ccc(=O)[nH]c2=O)[C@](C)(F)[C@@H]1O)Oc1ccccc1 [sofosbuvir]
[2]
  EC50: 2250 nM
[1]; 2×EC50 (initiated at 1×EC50, increased at day 9)
  viral escape: 77 days
[3]
  EC50: 668 nM

## COC(=O)N[C@H](C(=O)N1CCC[C@H]1c1nc(-c2ccc3c(c2)O[C@@H](c2ccccc2)n2c-3cc3cc(-c4c[nH]c([C@@H]5CCCN5C(=O)[C@@H](NC(=O)OC)C(C)C)n4)ccc32)c[nH]1)C(C)C [elbasvir]
[1]; 100×EC50
  emergence of main RASs responsible for ED43 escape: 5 days

## COC(=O)N[C@H](C(=O)N1CC2(CC2)C[C@H]1c1nc(-c2ccc3c(c2)C(F)(F)c2cc(-c4ccc5[nH]c([C@@H]6[C@H]7CC[C@H](C7)N6C(=O)[C@@H](NC(=O)OC)C(C)C)nc5c4)ccc2-3)c[nH]1)C(C)C [ledipasvir]
[1]; 100×EC50
  emergence of main RASs responsible for ED43 escape: 5 days

## COC(=O)N[C@H](C(=O)N1CCC[C@H]1c1nc2cc([C@H]3CC[C@H](c4cc5nc([C@@H]6CCCN6C(=O)[C@@H](NC(=O)OC)[C@@H](C)OC)[nH]c5cc4F)N3c3cc(F)c(N4CCC(c5ccc(F)cc5)CC4)c(F)c3)c(F)cc2[nH]1)[C@@H](C)OC [pibrentasvir]
[1]; 5×EC50
  viral escape: ≤ 33 days
[1]; 10×EC50
  treatment outcome: viral eradication

## COC(=O)N[C@H](C(=O)N1CCC[C@H]1C(=O)Nc1ccc([C@@H]2CC[C@@H](c3ccc(NC(=O)[C@@H]4CCCN4C(=O)[C@@H](NC(=O)OC)C(C)C)cc3)N2c2ccc(C(C)(C)C)cc2)cc1)C(C)C [ombitasvir]
[1]; 100×EC50
  emergence of main RASs responsible for ED43 escape: 5 days

## Cc1cnc(C(=O)N[C@H]2CCCCC/C=C\[C@@H]3C[C@@]3(C(=O)NS(=O)(=O)C3CC3)NC(=O)[C@@H]3C[C@@H](Oc4nc5ccccc5c5ccccc45)CN3C2=O)cn1 [paritaprevir]
[1]; 8×EC50
  emergence of RAS NS3P-D168E after treatment initiation: 7 days
  viral escape / viral spread under treatment: 16 days
